Results: patent US20080019916A1, “Methods and pharmaceuticals for treating muscle insulin resistance and related conditions” (University of Tasmania, priority 2001, published 2008)

Columns and labels:
anaesthetised rats = experiment: hyperinsulinaemic euglycaemic clamp in anaesthetised rats with 1-MX metabolism, glucose uptake and haemodynamic monitoring; type: in vivo, rat
Text: From present knowledge there would appear to be at least three possible mechanisms to account for insulin-mediated capillary recruitment in skeletal muscle. Firstly and most likely, insulin may act at insulin receptors on endothelial cells and an IRS-1/2, PI3-K pathway to activate eNOS to produce NO, which in turn permeates adjacent vascular smooth muscle cells to activate soluble guanylyl cyclase and lower the vascular tone of pre-capillary sphincters. In favour of this mechanism is the fact that this process is NO-dependent and is thus consistent with our preliminary data (FIG. 4). There is compelling evidence that insulin acts directly through insulin receptors on endothelial cells to control nutritive capillary flow in skin. Secondly, insulin may act at insulin receptors on the vascular smooth muscle cells (22) via IRS-1/2, PI3-K, NOS, cGMP, MBP (myosin bound phosphatase) sequence to cause vasorelaxation. This mechanism would be NO-dependent, free of endothelial cell involvement in signalling and attractive as TNFα is known to inhibit insulin signalling in vascular smooth muscle cells, although to date this has been restricted to the ERK1/2 activation step (23). This mechanism would also lead ultimately to the activation of guanylyl cyclase and the production of cyclic GMP. Thirdly, insulin may act at insulin receptors on skeletal muscle to activate glucose transport and metabolism by the IRS-1/2, PI3-K, GLUT4 pathway to produce a metabolite (e.g. adenosine) that permeates adjacent tissue to react with appropriate receptors on endothelial/vascular smooth muscle cells to result in vasorelaxation. […] FIG. 4. The effect of L-NAME on insulin mediated increases in hindleg glucose uptake (FIG. 4a) and 1-MX metabolism (FIG. 4b) was examined. Euglycemic clamp conditions (10 mU/min/kg) were conducted for 2 h. […] This latter mechanism would resemble that occurring in exercise where vasodilatory metabolite(s) are released locally by working muscle to facilitate local blood flow and would be inhibited by agents (e.g. glucosamine) that inhibit muscle glucose metabolism. All three mechanisms should be wortmannin sensitive as PI3-K is expected to be involved. A variant of this third mechanism is where a form of NOS is activated in skeletal muscle independently of glucose metabolism. NO could then permeate neighbouring tissue as above. The terminal half of this fourth possible mechanism should be simulated by AMPK activation with AICAR addition (24). Overall, given that the mechanism of capillary recruitment by insulin in rat muscle is NO-dependent (FIG. 4) and that NO acts by producing cyclic GMP, agents that might enhance capillary recruitment by insulin should be targeted to enhance insulin's production of NO or cyclic GMP. In principle, 1-methylxanthine (1-MX) is an exogenous substrate for an enzyme located predominantly in the nutritive capillary endothelial cells (much less so in the non-nutritive route and myocytes). Consequently, passage of blood borne 1-MX through the nutritive vascular route leads to its conversion to the product 1-methylurate (1-MU). Chromatographic analysis of arterial and venous samples for 1-MX and 1-MU together with the total blood flow rate over the muscle bed allows the calculation of 1-MX metabolism. A number of our studies using the perfused rat hindlimb have shown tight correlation between nutritive flow (or the proportion of nutritive/non-nutritive flow) and 1-MX metabolism (12,13). Assay of new drugs acting to increase capillary recruitment in the presence of endogenous or exogenous insulin. This is done in an optional two tier manner, firstly in anaesthetized rats using the hyperinsulinaemic euglycaemic clamp (14) and secondly, in human forearm using a localized hyperinsulinaemic euglycaemic clamp (17). The initial testing in rats is optional, but allows rapid identification of those agents likely to be effective in humans. […]

[1] = system: skeletal muscle of the rat hindlimb; details: physiologic doses of insulin (3 mU/min/kg clamp); cited from earlier work
[2] = system: skeletal muscle of the rat hindlimb; experiment: contrast enhanced ultrasound/microbubbles (CEU) measurement of capillary blood volume in rat hindlimb muscle; type: in vivo
Text: A second method was devised using the latest technologies in ultrasound. The ultrasound method relies on the increased echogenicity of albumin microbubbles which are continuously infused intravenously during data acquisition. The acoustic signal that is generated from the microbubbles when exposed to ultrasound produces tissue opacification which is proportional to the number of microbubbles within the ultrasound beam. Using harmonic pulsing methods essentially all microbubbles within the ultrasound beam are destroyed in response to a single pulse of high-energy ultrasound and an image is obtained. In the time interval between subsequent pulsing episodes, microbubbles flowing into the tissue are replenished within the beam and affect the intensity of the signal from the next high energy pulse. Repeating this process with pulse delays between 50 msec and 20 sec, the beam will be fully replenished and further increases in the time between each pulsing interval will not produce a change to tissue opacification. The rate of microbubble reappearance within the ultrasound beam provides an indication of capillary velocity and the degree of tissue opacification provides a measurement of capillary blood volume (CBV). Images are background-subtracted from images from a pulsing interval of 1000 ms which represents the replenishment of arteries and arterioles thus providing a measurement of capillary flow. The plateau tissue opacification (measured as videointensity) is the determination of capillary blood volume. Using this approach, changes in capillary blood volume in response to insulin and exercise have recently been assessed in the skeletal muscle of the rat hindlimb in vivo and compared to data obtained using 1-MX metabolism (ref 16; FIG. 1). FIG. 1. Comparison of the effect of saline, insulin (3 mU/min/kg, euglycemic clamp×120 min) or muscle contraction (2 Hz, 1 ms duration, monophasic square waves×10 min) on capillary blood volume as measured by microbubble videointensity using contrast enhanced ultrasound (FIG. 1a) or the hindlimb extraction of 1-MX (FIG. 1b) measured under identical conditions. […] Exercise is regarded by most physiologists as a “bench-mark” stimulus for capillary recruitment. […] A particular advantage of the ultrasound method is that it is relatively non-invasive and is suitable for human use (17). This opens up possibilities for its use in diagnosis in terms of impaired capillary recruitment in response to insulin and the monitoring of outcomes from therapeutic interventions that might act by increasing capillary recruitment. The ultrasound method relies on the increased echogenicity of albumin microbubbles that are continuously infused intravenously during data acquisition. […]

[3] = infused with sub-maximal physiologic dose of insulin, vs insulin alone, FIG. 5b
[4] = insulin 3 mU/min/kg, anesthetized rat, before vs after, FIG. 7c

## COC(=O)[C@@H](N)CCCNC(=N)N[N+](=O)[O-] [L-NAME]
Anaesthetised rats; euglycemic clamp 10 mU/min/kg, 2 h, n=5
  insulin-mediated increase in femoral blood flow (FBF): blocked the increase in FBF
Anaesthetised rats; euglycemic clamp 10 mU/min/kg, 2 h, n=5, raised from 100±4
  mean arterial blood pressure: 125±5 mmHg

## CCCOc1ccccc1-c1nc(=O)c2[nH]nnc2[nH]1 [Zaprinast, 1,4-dihydro-5-(2-propoxyphenyl)-7H-1,2,3-triazolo(4,5-d)pyrimidin-7-one]
Anaesthetised rats; infused with sub-maximal physiologic dose of insulin, vs insulin alone, FIG. 5a
  insulin-mediated capillary recruitment (hindleg 1-MX metabolism): significantly (P<0.05) enhanced
Anaesthetised rats; [3]
  insulin-mediated glucose appearance (Ra): significantly (P<0.05) enhanced
  insulin-mediated glucose disposal (Rd): significantly (P<0.05) enhanced

## insulin: hormone infused in euglycemic clamp
[1]
  increase in capillary blood volume: 2-3 fold
[2]; euglycemic insulin clamp 3 mU/min/kg, 120 min, vs baseline/saline, FIG. 1a
  capillary blood volume (microbubble videointensity, CEU): marked increases
[2]; [4]
  plateau videointensity (A), microvascular volume: clearly higher
  rate of microvascular filling (β): no change

## NC(=O)c1ncn([C@@H]2O[C@H](CO)[C@@H](O)[C@H]2O)c1N [AICAR, 5-aminoimidazole-4-carboxamide-1-β-D-ribofuranoside]
Anaesthetised rats; infused with insulin, vs insulin alone, P<0.05, FIG. 6b
  insulin-mediated hindleg glucose uptake: markedly enhanced
[2]; infused alone, without insulin, FIG. 6a
  capillary recruitment as indicated by CEU (capillary blood volume): recruited capillary flow on its own

## TNFα
Anaesthetised rats; rats treated with the cytokine in vivo
  effect on insulin-mediated capillary recruitment: completely block
